{"source": "paper PMC12669732", "about": "“Synergistic targeting of cancer cells through simultaneous inhibition of key metabolic enzymes” (Cell Death and Differentiation, 2025)", "key": {"complex I (bovine heart)": {"target": "T1, complex I (bovine heart) (Bos taurus, UniProt P03887+P17694+P42026)", "T1 construct": "gene NDUFS2; native respiratory complex I (whole multi-subunit complex)", "T1 sequence (P17694 34-463)": "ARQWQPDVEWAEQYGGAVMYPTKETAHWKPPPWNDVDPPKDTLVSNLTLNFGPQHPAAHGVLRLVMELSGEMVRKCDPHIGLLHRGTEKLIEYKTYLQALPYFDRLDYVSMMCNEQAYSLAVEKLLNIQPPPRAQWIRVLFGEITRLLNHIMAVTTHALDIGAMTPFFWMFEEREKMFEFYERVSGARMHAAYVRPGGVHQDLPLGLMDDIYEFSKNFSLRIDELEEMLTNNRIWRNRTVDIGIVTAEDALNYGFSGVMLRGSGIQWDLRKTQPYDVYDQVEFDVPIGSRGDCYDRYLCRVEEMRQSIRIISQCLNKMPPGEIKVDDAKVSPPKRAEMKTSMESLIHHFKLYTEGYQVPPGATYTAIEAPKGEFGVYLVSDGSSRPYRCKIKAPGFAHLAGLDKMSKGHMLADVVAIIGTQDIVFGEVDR", "T1 sequence (P42026 38-216)": "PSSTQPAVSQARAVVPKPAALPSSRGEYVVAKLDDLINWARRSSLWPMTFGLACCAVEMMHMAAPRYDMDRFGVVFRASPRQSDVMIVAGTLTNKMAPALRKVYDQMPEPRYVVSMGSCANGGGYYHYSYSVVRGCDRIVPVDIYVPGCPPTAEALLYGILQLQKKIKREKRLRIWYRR", "T1 sequence (P03887 whole entry)": "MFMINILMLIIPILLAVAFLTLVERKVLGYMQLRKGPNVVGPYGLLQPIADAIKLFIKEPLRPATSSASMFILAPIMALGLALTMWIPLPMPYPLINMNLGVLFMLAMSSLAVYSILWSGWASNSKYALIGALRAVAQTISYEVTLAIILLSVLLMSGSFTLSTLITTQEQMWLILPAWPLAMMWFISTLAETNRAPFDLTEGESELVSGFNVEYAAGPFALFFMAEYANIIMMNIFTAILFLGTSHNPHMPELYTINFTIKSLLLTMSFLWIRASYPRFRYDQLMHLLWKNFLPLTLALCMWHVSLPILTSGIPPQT", "experiment": "spectrophotometric NADH oxidation, rotenone-sensitive complex I activity", "format": "biochemical", "conditions": "120 uM NADH, 20 uM oxidized cytochrome c, pH 7.5, 37 °C; Q-site (ubiquinone reduction site), no effect at NADH site"}, "complex I": {"target": "T2, complex I (Homo sapiens, UniProt O75251+O75306+P03886)", "T2 construct": "gene NDUFS2; native respiratory complex I (whole multi-subunit complex)", "T2 sequence (O75306 34-463)": "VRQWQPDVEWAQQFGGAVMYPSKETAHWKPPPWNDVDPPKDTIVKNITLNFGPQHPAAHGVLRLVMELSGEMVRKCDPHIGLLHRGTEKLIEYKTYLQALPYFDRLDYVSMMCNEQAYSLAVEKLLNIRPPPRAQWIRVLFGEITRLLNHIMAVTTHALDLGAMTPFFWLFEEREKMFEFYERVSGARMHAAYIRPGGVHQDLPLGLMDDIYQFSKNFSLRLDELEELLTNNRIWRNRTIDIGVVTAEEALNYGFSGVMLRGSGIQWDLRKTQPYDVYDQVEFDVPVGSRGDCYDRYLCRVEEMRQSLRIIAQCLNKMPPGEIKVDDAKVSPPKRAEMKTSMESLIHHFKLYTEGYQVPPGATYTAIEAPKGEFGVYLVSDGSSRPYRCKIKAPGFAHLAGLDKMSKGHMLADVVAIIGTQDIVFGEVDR", "T2 sequence (O75251 39-213)": "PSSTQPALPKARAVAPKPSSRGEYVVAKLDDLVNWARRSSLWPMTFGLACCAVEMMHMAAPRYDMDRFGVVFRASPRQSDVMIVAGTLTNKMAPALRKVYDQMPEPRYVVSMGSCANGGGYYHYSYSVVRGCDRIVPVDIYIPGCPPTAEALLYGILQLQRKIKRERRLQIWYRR", "T2 sequence (P03886 whole entry)": "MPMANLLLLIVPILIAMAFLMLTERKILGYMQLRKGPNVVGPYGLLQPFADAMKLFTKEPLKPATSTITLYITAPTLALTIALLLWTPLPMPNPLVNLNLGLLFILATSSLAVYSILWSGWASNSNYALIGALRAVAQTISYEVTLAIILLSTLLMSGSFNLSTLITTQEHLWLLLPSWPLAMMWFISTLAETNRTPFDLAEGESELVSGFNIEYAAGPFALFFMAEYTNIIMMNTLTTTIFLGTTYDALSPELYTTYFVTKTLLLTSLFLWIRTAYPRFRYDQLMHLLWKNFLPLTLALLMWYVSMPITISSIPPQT", "experiment": "spectrophotometric NADH oxidation, rotenone-sensitive complex I activity", "format": "biochemical", "conditions": "120 uM NADH, 20 uM oxidized cytochrome c, pH 7.5, 37 °C; Q-site (ubiquinone reduction site), no effect at NADH site"}}, "data": [{"smiles": "C[C@@H](C(=O)Nc1ccc(Cl)cc1)[C@H]1CC[C@@H](c2ccnc3ccc(F)cc32)CC1", "note": "[BMS-986205]", "values": [{"measurement": "complex I activity", "setting": "complex I (bovine heart)", "value": "dose-dependent decrease of complex I activity in mitochondria from KRAS^G12V/MYC, HEK293T cells and bovine heart"}, {"measurement": "complex I activity", "setting": "complex I", "value": "dose-dependent decrease of complex I activity in mitochondria from KRAS^G12V/MYC, HEK293T cells and bovine heart"}]}]}
